Assay results: ChEMBL document CHEMBL3085634, “Identification of elaiophylin derivatives from the marine-derived actinomycete Streptomyces sp. 7-145 using PCR-based screening” (2013)
≈ marks a conversion by molar mass, not a printed value.

Experiments:
Assay type in all cases: functional
Morganella morganii = test: Antibacterial activity against beta-lactamase producing Morganella morganii ATCC 25830 assessed as growth inhibition after 18 hrs by agar dilution method; conditions: ATCC 25830, 18 h
Pseudomonas aeruginosa = test: Antibacterial activity against beta-lactamase producing Pseudomonas aeruginosa ATCC 27853 assessed as growth inhibition after 18 hrs by agar dilution method; conditions: ATCC 27853, 18 h
Klebsiella pneumoniae [1] = test: Antibacterial activity against New Delhi metallo-beta-lactamase 1 producing Klebsiella pneumoniae ATCC BAA-2146 assessed as growth inhibition after 18 hrs by agar dilution method; conditions: ATCC BAA-2146, 18 h
Klebsiella pneumoniae [2] = test: Antibacterial activity against extended spectrum beta-lactamase producing Klebsiella pneumoniae ATCC 700603 assessed as growth inhibition after 18 hrs by agar dilution method; conditions: ATCC 700603, 18 h
Escherichia coli [3] = test: Antibacterial activity against beta-lactamase producing Escherichia coli 09-20 assessed as growth inhibition after 18 hrs by agar dilution method; conditions: 09-20, 18 h
Escherichia coli [4] = test: Antibacterial activity against extended spectrum beta-lactamase producing Escherichia coli 09-1 assessed as growth inhibition after 18 hrs by agar dilution method; conditions: 09-1, 18 h
Micrococcus luteus = test: Antibacterial activity against apramycin-resistant Micrococcus luteus ATCC 10240 assessed as growth inhibition after 18 hrs by agar dilution method; conditions: ATCC 10240, 18 h
Enterococcus faecium [5] = test: Antibacterial activity against vancomycin-sensitive Enterococcus faecium 09-10 assessed as growth inhibition after 18 hrs by agar dilution method; conditions: 09-10, 18 h
Enterococcus faecium [6] = test: Antibacterial activity against vancomycin-resistant Enterococcus faecium ATCC 700221 assessed as growth inhibition after 18 hrs by agar dilution method; conditions: ATCC 700221, 18 h
Enterococcus faecalis [7] = test: Antibacterial activity against vancomycin-resistant Enterococcus faecalis R6512 assessed as growth inhibition after 18 hrs by agar dilution method; conditions: R6512, 18 h
Enterococcus faecalis [8] = test: Antibacterial activity against vancomycin-resistant Enterococcus faecalis W4138 assessed as growth inhibition after 18 hrs by agar dilution method; conditions: W4138, 18 h
Enterococcus faecalis [9] = test: Antibacterial activity against vancomycin-resistant Enterococcus faecalis ATCC 51299 assessed as growth inhibition after 18 hrs by agar dilution method; conditions: ATCC 51299, 18 h
Enterococcus faecalis [10] = test: Antibacterial activity against vancomycin-sensitive Enterococcus faecalis 09-8 assessed as growth inhibition after 18 hrs by agar dilution method; conditions: 09-8, 18 h
Enterococcus faecalis [11] = test: Antibacterial activity against vancomycin-sensitive Enterococcus faecalis ATCC 29212 assessed as growth inhibition after 18 hrs by agar dilution method; conditions: ATCC 29212, 18 h
[12] = tested on: Staphylococcus epidermidis; test: Antibacterial activity against methicillin-resistant Staphylococcus epidermidis 09-3 assessed as growth inhibition after 18 hrs by agar dilution method; conditions: 09-3, 18 h
Staphylococcus aureus [13] = test: Antibacterial activity against thiostrepton-resistant Staphylococcus aureus ATCC 6538P assessed as growth inhibition after 18 hrs by agar dilution method
Staphylococcus aureus [14] = test: Antibacterial activity against methicillin-resistant Staphylococcus aureus R6101 assessed as growth inhibition after 18 hrs by agar dilution method; conditions: R6101, 18 h
Staphylococcus aureus [15] = test: Antibacterial activity against methicillin-resistant Staphylococcus aureus 09-13 assessed as growth inhibition after 18 hrs by agar dilution method; conditions: 09-13, 18 h
Staphylococcus aureus [16] = test: Antibacterial activity against methicillin-resistant Staphylococcus aureus ATCC 33591 assessed as growth inhibition after 18 hrs by agar dilution method; conditions: ATCC 33591, 18 h
Staphylococcus aureus [17] = test: Antibacterial activity against methicillin-sensitive Staphylococcus aureus 09-6 assessed as growth inhibition after 18 hrs by agar dilution method; conditions: 09-6, 18 h
Staphylococcus aureus [18] = test: Antibacterial activity against methicillin-sensitive Staphylococcus aureus ATCC 29213 assessed as growth inhibition after 18 hrs by agar dilution method; conditions: ATCC 29213, 18 h
[19] = tested on: Staphylococcus epidermidis; test: Antibacterial activity against methicillin-sensitive Staphylococcus epidermidis ATCC 12228 assessed as growth inhibition after 18 hrs by agar dilution method; conditions: ATCC 12228, 18 h
[20] = tested on: Staphylococcus epidermidis; test: Antibacterial activity against methicillin-sensitive Staphylococcus epidermidis 09-9 assessed as growth inhibition after 18 hrs by agar dilution method; conditions: 09-9, 18 h

Compound	MIC (Morganella morganii)	MIC (Pseudomonas aeruginosa)	MIC (Klebsiella pneumoniae [1])	MIC (Klebsiella pneumoniae [2])	MIC (Escherichia coli [3])	MIC (Escherichia coli [4])	MIC (Micrococcus luteus)	MIC (Enterococcus faecium [5])	MIC (Enterococcus faecium [6])	MIC (Enterococcus faecalis [7])	MIC (Enterococcus faecalis [8])	MIC (Enterococcus faecalis [9])	MIC (Enterococcus faecalis [10])	MIC (Enterococcus faecalis [11])	MIC [12]	MIC (Staphylococcus aureus [13])	MIC (Staphylococcus aureus [14])	MIC (Staphylococcus aureus [15])	MIC (Staphylococcus aureus [16])	MIC [19]	further results
CC[C@@H]1[C@@H](C)O[C@@](OC)([C@@H](C)[C@H](O)[C@H](C)[C@H]2OC(=O)/C=C/C=C/[C@H](C)[C@@H]([C@@H](C)[C@@H](O)[C@H](C)[C@@]3(OC)C[C@@H](O[C@H]4C[C@H](O)[C@H](O)[C@H](C)O4)[C@H](C)[C@@H](C)O3)OC(=O)/C=C/C=C/[C@@H]2C)C[C@H]1O[C@H]1C[C@H](O)[C@H](O)[C@H](C)O1	> 128 µg/mL	> 128 µg/mL	> 128 µg/mL	> 128 µg/mL	> 128 µg/mL	> 128 µg/mL	128 µg/mL (≈ 123 µM)	64 µg/mL (≈ 61.6 µM)	64 µg/mL (≈ 61.6 µM)	> 128 µg/mL	64 µg/mL (≈ 61.6 µM)	64 µg/mL (≈ 61.6 µM)	64 µg/mL (≈ 61.6 µM)	64 µg/mL (≈ 61.6 µM)	64 µg/mL (≈ 61.6 µM)	> 128 µg/mL	16 µg/mL (≈ 15.4 µM)	32 µg/mL (≈ 30.8 µM)	32 µg/mL (≈ 30.8 µM)	64 µg/mL (≈ 61.6 µM)	MIC (Staphylococcus aureus [17]): 32 µg/mL (≈ 30.8 µM); MIC (Staphylococcus aureus [18]): 32 µg/mL (≈ 30.8 µM)
CC[C@@H]1[C@@H](C)O[C@@](O)([C@@H](C)[C@H](O)[C@H](C)[C@H]2OC(=O)/C=C/C=C/[C@H](C)[C@@H]([C@@H](C)[C@@H](O)[C@H](C)[C@@]3(O)C[C@@H](O[C@H]4C[C@H](O)[C@H](O)[C@H](C)O4)[C@H](C)[C@@H](C)O3)OC(=O)/C=C/C=C/[C@@H]2C)C[C@H]1O[C@H]1C[C@H](O)[C@H](O)[C@H](C)O1	> 64 µg/mL	> 64 µg/mL	> 64 µg/mL	> 64 µg/mL	> 64 µg/mL	> 64 µg/mL	2 µg/mL (≈ 1.98 µM)	> 64 µg/mL	2 µg/mL (≈ 1.98 µM)	2 µg/mL (≈ 1.98 µM)	4 µg/mL (≈ 3.96 µM)	2 µg/mL (≈ 1.98 µM)	16 µg/mL (≈ 15.8 µM)	2 µg/mL (≈ 1.98 µM)	4 µg/mL (≈ 3.96 µM)	2 µg/mL (≈ 1.98 µM)	2 µg/mL (≈ 1.98 µM)	2 µg/mL (≈ 1.98 µM)	2 µg/mL (≈ 1.98 µM)	4 µg/mL (≈ 3.96 µM)	MIC (Staphylococcus aureus [17]): 2 µg/mL (≈ 1.98 µM); MIC (Staphylococcus aureus [18]): 2 µg/mL (≈ 1.98 µM)
CC[C@@H]1[C@@H](C)OC([C@@H](C)[C@H](O)[C@H](C)[C@H]2OC(=O)/C=C/C=C/[C@H](C)[C@@H]([C@@H](C)[C@@H](O)[C@H](C)[C@@]3(O)C[C@@H](O[C@H]4C[C@H](O)[C@H](O)[C@H](C)O4)[C@H](CC)[C@@H](C)O3)OC(=O)/C=C/C=C/[C@@H]2C)=C[C@H]1O[C@H]1C[C@H](O)[C@H](O)[C@H](C)O1	> 64 µg/mL	> 64 µg/mL	> 64 µg/mL	> 64 µg/mL	> 64 µg/mL	> 64 µg/mL	2 µg/mL (≈ 1.99 µM)	> 64 µg/mL	4 µg/mL (≈ 3.97 µM)	4 µg/mL (≈ 3.97 µM)	4 µg/mL (≈ 3.97 µM)	2 µg/mL (≈ 1.99 µM)	2 µg/mL (≈ 1.99 µM)	2 µg/mL (≈ 1.99 µM)	> 64 µg/mL	4 µg/mL (≈ 3.97 µM)	> 64 µg/mL	2 µg/mL (≈ 1.99 µM)	2 µg/mL (≈ 1.99 µM)	> 64 µg/mL	MIC (Staphylococcus aureus [17]): 2 µg/mL (≈ 1.99 µM); MIC (Staphylococcus aureus [18]): 2 µg/mL (≈ 1.99 µM)
CN[C@H](CC(C)C)C(=O)N[C@H]1C(=O)N[C@@H](CC(N)=O)C(=O)N[C@H]2C(=O)N[C@H]3C(=O)N[C@H](C(=O)N[C@H](C(=O)O)c4cc(O)cc(O)c4-c4cc3ccc4O)[C@H](O)c3ccc(c(Cl)c3)Oc3cc2cc(c3O[C@@H]2O[C@H](CO)[C@@H](O)[C@H](O)[C@H]2O[C@H]2C[C@](C)(N)[C@H](O)[C@H](C)O2)Oc2ccc(cc2Cl)[C@H]1O [VANCOMYCIN]	–	–	–	–	–	–	–	–	–	> 256 µg/mL	4 µg/mL (≈ 2.76 µM)	4 µg/mL (≈ 2.76 µM)	1 µg/mL (≈ 0.69 µM)	1 µg/mL (≈ 0.69 µM)	–	–	–	–	–	0.5 µg/mL (≈ 0.345 µM)	MIC [20]: 0.5 µg/mL (≈ 0.345 µM)
